The record followed here is US12649751B2 (Arcus Biosciences, Inc., priority 2022, dated 2026).

SMILES strings stand for the structures. A value given as a limit tells only on which side of the number the result lay.

In the experiment the target is HPK1 (Homo sapiens, UniProt Q92918). Put plainly: HPK1 Biochemical Assay (ADP-Glo luminescence; low ATP 10 μM or high ATP 200 μM). The note with it: 2 nM HPK1, 10 μM ATP; read-out: Biochemical Potency (low ATP).
Sequence of HPK1 (Q92918 whole entry, species assumed): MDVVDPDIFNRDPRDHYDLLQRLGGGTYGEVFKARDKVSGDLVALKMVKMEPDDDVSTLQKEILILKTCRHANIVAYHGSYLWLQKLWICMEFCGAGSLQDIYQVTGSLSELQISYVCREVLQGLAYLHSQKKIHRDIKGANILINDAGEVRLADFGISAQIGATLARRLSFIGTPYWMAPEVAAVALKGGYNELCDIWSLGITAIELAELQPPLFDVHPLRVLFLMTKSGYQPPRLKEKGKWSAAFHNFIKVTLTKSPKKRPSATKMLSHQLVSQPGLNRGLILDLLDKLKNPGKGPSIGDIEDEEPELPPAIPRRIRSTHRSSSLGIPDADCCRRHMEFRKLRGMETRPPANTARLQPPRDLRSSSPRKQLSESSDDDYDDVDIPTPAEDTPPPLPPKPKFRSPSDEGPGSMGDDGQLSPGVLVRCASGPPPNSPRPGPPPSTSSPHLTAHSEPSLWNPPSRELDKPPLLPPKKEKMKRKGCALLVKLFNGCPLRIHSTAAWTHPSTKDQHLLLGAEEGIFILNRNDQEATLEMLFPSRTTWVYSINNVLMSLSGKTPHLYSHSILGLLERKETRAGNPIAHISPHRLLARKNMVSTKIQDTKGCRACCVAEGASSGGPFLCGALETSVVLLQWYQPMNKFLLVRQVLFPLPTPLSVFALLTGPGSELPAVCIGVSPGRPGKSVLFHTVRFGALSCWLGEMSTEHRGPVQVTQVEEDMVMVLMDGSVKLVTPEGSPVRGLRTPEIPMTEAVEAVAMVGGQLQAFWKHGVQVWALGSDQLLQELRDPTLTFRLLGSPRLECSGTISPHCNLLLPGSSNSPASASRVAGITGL
With `Cc1cc(Nc2cc3nc(-c4cccc(C)n4)sc3cn2)nc(O[C@H]2CCNC2)c1` [Example 163, 4-Methyl-N-[2-(6-methylpyridin-2-yl)-[1,3]thiazolo[5,4-c]pyridin-6-yl]-6-[(3S)-pyrrolidin-3-yloxy]pyridin-2-amine], the IC50 is less than 0.1 µM.

For `Cc1cc(Nc2cc3nc(-c4ccncc4)sc3cn2)nc(O[C@H]2CCNC2)c1` [Example 166, 4-Methyl-N-[2-(pyridin-4-yl)-[1,3]thiazolo[5,4-c]pyridin-6-yl]-6-[(3S)-pyrrolidin-3-yloxy]pyridin-2-amine], the IC50 was less than 0.1 µM. The same measure for `Cc1cc(Nc2cc3nc(-c4ccnc(C)c4)sc3cn2)nc(O[C@H]2CCNC2)c1` [Example 168, 4-Methyl-N-[2-(2-methylpyridin-4-yl)-[1,3]thiazolo[5,4-c]pyridin-6-yl]-6-[(3S)-pyrrolidin-3-yloxy]pyridin-2-amine]: less than 0.1 µM; for `Cc1cc(Nc2cc3nc(-c4ccncc4C)sc3cn2)nc(O[C@H]2CCNC2)c1` [Example 169, 4-Methyl-N-[2-(3-methylpyridin-4-yl)-[1,3]thiazolo[5,4-c]pyridin-6-yl]-6-[(3S)-pyrrolidin-3-yloxy]pyridin-2-amine]: less than 0.1 µM; for `Cc1cc(Nc2cc3nc(-c4ccnc(N)c4)sc3cn2)nc(O[C@H]2CCNC2)c1` [Example 170, N-[2-(2-Aminopyridin-4-yl)-[1,3]thiazolo[5,4-c]pyridin-6-yl]-4-methyl-6-[(3S)-pyrrolidin-3-yloxy]pyridin-2-amine]: less than 0.1 µM. As for `Cc1cc(Nc2cc3nc(-c4ccnc(C)c4)sc3cn2)nc(OC2CNCC2(F)F)c1` (centres unmarked) [Example 171, 6-[(4,4-Difluoropyrrolidin-3-yl)oxy]-4-methyl-N-[2-(2-methylpyridin-4-yl)-[1,3]thiazolo[5,4-c]pyridin-6-yl]pyridin-2-amine], the IC50 was less than 0.1 µM. On to `Cc1ccncc1-c1nc2cc(Nc3ccc(C)c(O[C@H]4CCNC4)n3)ncc2s1` [Example 173, 5-Methyl-N-[2-(4-methylpyridin-3-yl)-[1,3]thiazolo[5,4-c]pyridin-6-yl]-6-[(3S)-pyrrolidin-3-yloxy]pyridin-2-amine], for which the IC50 is less than 0.1 µM. `Cc1cc(Nc2cc3nc(-c4ncccc4C)sc3cn2)nc(OC2CCNCC2)c1` [Example 174, 4-Methyl-N-[2-(3-methylpyridin-2-yl)-[1,3]thiazolo[5,4-c]pyridin-6-yl]-6-(piperidin-4-yloxy)pyridin-2-amine]: the IC50 is less than 0.1 µM. With `Cc1cc(Nc2cc3nc(-c4cc(C#N)ccc4C)sc3cn2)nc(O[C@H]2CCNC2)c1` [Example 176, 4-Methyl-3-(6-{[4-methyl-6-((3S)-pyrrolidin-3-yloxy)pyridin-2-yl]amino}-[1,3]thiazolo[5,4-c]pyridin-2-yl)benzonitrile] the figure was less than 0.1 µM; with `Cc1cc(Nc2cc3nc(-c4cccnc4C)sc3cn2)nc(O[C@H]2CCNC2)c1` [Example 179, 4-Methyl-N-[2-(2-methylpyridin-3-yl)-[1,3]thiazolo[5,4-c]pyridin-6-yl]-6-[(3S)-pyrrolidin-3-yloxy]pyridin-2-amine], less than 0.1 µM; with `Cc1cc(Nc2cc3nc(-c4ccnn4C)sc3cn2)nc(O[C@H]2CCNC2)c1` [Example 181, 4-Methyl-N-[2-(1-methyl-1H-pyrazol-5-yl)-[1,3]thiazolo[5,4-c]pyridin-6-yl]-6-[(3S)-pyrrolidin-3-yloxy]pyridin-2-amine], less than 0.1 µM. On to `Cc1cc(Nc2cc3nc(-c4nccn4C)sc3cn2)nc(O[C@H]2CCNC2)c1` [Example 183, 4-Methyl-N-[2-(1-methyl-1H-imidazol-2-yl)-[1,3]thiazolo[5,4-c]pyridin-6-yl]-6-[(3S)-pyrrolidin-3-yloxy]pyridin-2-amine], for which the IC50 is less than 0.1 µM. The same measure for `Cc1cc(Nc2cc3nc(C4CCOCC4)sc3cn2)nc(O[C@H]2CCNC2)c1` [Example 184, 4-Methyl-N-[2-(oxan-4-yl)-[1,3]thiazolo[5,4-c]pyridin-6-yl]-6-[(3S)-pyrrolidin-3-yloxy]pyridin-2-amine]: less than 0.1 µM.

`Cc1cc(Nc2cc3nc(-c4cc5n(n4)CC(=O)N(C(C)C)CC5)sc3cn2)nc(O[C@H]2CCNC2)c1` [Example 185, 2-(6-{[4-Methyl-6-((3S)-pyrrolidin-3-yloxy)pyridin-2-yl]amino}-[1,3]thiazolo[5,4-c]pyridin-2-yl)-6-(propan-2-yl)-4H,5H,6H,7H,8H-pyrazolo[1,5-d][1,4]diazepin-7-one]: the IC50 lay within 0.1 to 1 µM. As for `Cc1cc(Nc2cc3nc(-c4ccc(S(C)(=O)=O)cc4)sc3cn2)nc(O[C@H]2CCNC2)c1` [Example 186, N-[2-(4-Methanesulfonylphenyl)-[1,3]thiazolo[5,4-c]pyridin-6-yl]-4-methyl-6-[(3S)-pyrrolidin-3-yloxy]pyridin-2-amine], the IC50 was less than 0.1 µM. Take `Cc1cc(Nc2cc3nc(-c4ccc(C#N)cc4)sc3cn2)nc(O[C@H]2CCNC2)c1` [Example 187, 4-(6-{[4-Methyl-6-(pyrrolidin-3-yloxy)pyridin-2-yl]amino}-[1,3]thiazolo[5,4-c]pyridin-2-yl)benzonitrile]: the IC50 is less than 0.1 µM. For `Cc1cc(Nc2cc3nc(-c4ccc(F)cc4)sc3cn2)nc(O[C@H]2CCNC2)c1` [Example 188, N-[2-(4-Fluorophenyl)-[1,3]thiazolo[5,4-c]pyridin-6-yl]-4-methyl-6-[(3S)-pyrrolidin-3-yloxy]pyridin-2-amine], the IC50 was less than 0.1 µM. On to `Cc1cc(Nc2cc3nc(N4CCC(O)CC4)sc3cn2)nc(O[C@H]2CCNC2)c1` [Example 189, 1-(6-{[4-Methyl-6-((3S)-pyrrolidin-3-yloxy)pyridin-2-yl]amino}-[1,3]thiazolo[5,4-c]pyridin-2-yl)piperidin-4-ol], for which the IC50 is less than 0.1 µM. `COC1CCN(c2nc3cc(Nc4cc(C)cc(O[C@H]5CCNC5)n4)ncc3s2)CC1` [Example 190, N-[2-(4-Methoxypiperidin-1-yl)-[1,3]thiazolo[5,4-c]pyridin-6-yl]-4-methyl-6-((3S)-pyrrolidin-3-yloxy)pyridin-2-amine]: the IC50 was less than 0.1 µM. With `Cc1cc(Nc2cc3nc(N4CCOCC4)sc3cn2)nc(O[C@H]2CCNC2)c1` [Example 191, 4-Methyl-N-[2-(morpholin-4-yl)-[1,3]thiazolo[5,4-c]pyridin-6-yl]-6-((3S)-pyrrolidin-3-yloxy)pyridin-2-amine] the figure was less than 0.1 µM; with `Cc1cc(Nc2cc3nc(N4CCC[C@H](O)C4)sc3cn2)nc(O[C@H]2CCNC2)c1` [Example 192, (3S)-1-(6-{[4-Methyl-6-((3S)-pyrrolidin-3-yloxy)pyridin-2-yl]amino}-[1,3]thiazolo[5,4-c]pyridin-2-yl)piperidin-3-ol], less than 0.1 µM; with `Cc1cc(Nc2cc3nc(N4CCC[C@@H](O)C4)sc3cn2)nc(O[C@H]2CCNC2)c1` [Example 193, (3R)-1-(6-{[4-Methyl-6-((3S)-pyrrolidin-3-yloxy)pyridin-2-yl]amino}-[1,3]thiazolo[5,4-c]pyridin-2-yl)piperidin-3-ol], less than 0.1 µM.

Turning to `Cc1ccn(-c2nc3cc(Nc4ccc(N5CCOCC5)c(CN5CCCC5)n4)ncc3s2)n1` [Example 195, N-[2-(3-Methyl-1H-pyrazol-1-yl)-[1,3]thiazolo[5,4-c]pyridin-6-yl]-5-(morpholin-4-yl)-6-[(pyrrolidin-1-yl)methyl]pyridin-2-amine], the IC50 is less than 0.1 µM. With `Cc1cc(C)n(-c2nc3cc(Nc4ccc(N5CCOCC5)c(CN5CCCC5)n4)ncc3s2)n1` [Example 196, N-[2-(3,5-Dimethyl-1H-pyrazol-1-yl)-[1,3]thiazolo[5,4-c]pyridin-6-yl]-5-(morpholin-4-yl)-6-[(pyrrolidin-1-yl)methyl]pyridin-2-amine], the IC50 is less than 0.1 µM. Regarding `Cc1ccc(Nc2cc3nc(-n4nccc4C)sc3cn2)nc1CN[C@@H]1CCOC1` [Example 199, 5-Methyl-N-[2-(5-methyl-1H-pyrazol-1-yl)-[1,3]thiazolo[5,4-c]pyridin-6-yl]-6-({[(3R)-oxolan-3-yl]amino}methyl)pyridin-2-amine], the IC50 was less than 0.1 µM. `Cc1ccc(Nc2cc3nc(-n4nccc4C)sc3cn2)nc1N1C[C@@H](N)C[C@H]1CO` [Example 201, [(2S,4S)-4-Amino-1-(3-methyl-6-{[2-(5-methyl-1H-pyrazol-1-yl)-[1,3]thiazolo[5,4-c]pyridin-6-yl]amino}pyridin-2-yl)pyrrolidin-2-yl]methanol]: the IC50 is less than 0.1 µM. In the case of `Cc1ccc(Nc2cc3nc(-n4nccc4C)sc3cn2)nc1N1CC[C@H](O)C1` [Example 202, (3S)-1-(3-Methyl-6-{[2-(5-methyl-1H-pyrazol-1-yl)-[1,3]thiazolo[5,4-c]pyridin-6-yl]amino}pyridin-2-yl)pyrrolidin-3-ol], the IC50 is 0.1 to 1 µM.

On to `Cc1ccc(Nc2cc3nc(-n4nccc4C)sc3cn2)nc1N1CCN(CCO)CC1` [Example 203, 2-[4-(3-Methyl-6-{[2-(5-methyl-1H-pyrazol-1-yl)-[1,3]thiazolo[5,4-c]pyridin-6-yl]amino}pyridin-2-yl)piperazin-1-yl]ethan-1-ol], for which the IC50 fell in the range of 0.1 to 1 µM. With `Cc1ccc(Nc2cc3nc(-n4nccc4C)sc3cn2)nc1N1CCNCC1` [Example 204, 5-Methyl-N-[2-(5-methyl-1H-pyrazol-1-yl)-[1,3]thiazolo[5,4-c]pyridin-6-yl]-6-(piperazin-1-yl)pyridin-2-amine] the figure was less than 0.1 µM. With `C[C@@H]1CCC(=O)N1c1nc2cc(Nc3ccc(C4CCOCC4)c(CN4CCCC4)n3)ncc2s1` [Example 207, (5R)-5-Methyl-1-(6-{[5-(oxan-4-yl)-6-[(pyrrolidin-1-yl)methyl]pyridin-2-yl]amino}-[1,3]thiazolo[5,4-c]pyridin-2-yl)pyrrolidin-2-one] the figure was 0.1 to 1 µM; with `C[C@H]1CCC(=O)N1c1nc2cc(Nc3ccc(C4CCOCC4)c(CN4CCCC4)n3)ncc2s1` [Example 208, (5S)-5-Methyl-1-(6-{[5-(oxan-4-yl)-6-[(pyrrolidin-1-yl)methyl]pyridin-2-yl]amino}-[1,3]thiazolo[5,4-c]pyridin-2-yl)pyrrolidin-2-one], less than 0.1 µM.

In the case of `c1cc(C2CCOCC2)c(CN2CCCC2)nc1Nc1cc2nc(N3C[C@@H]4C[C@H]3CO4)sc2cn1` [Example 211], the IC50 lay within 0.1 to 1 µM.
